Key:
[1] = tested on: Fabry mice; assay: In vivo enrichment in Fabry mice engrafted with transduced HSPCs: observation of toxicities; settings: 0.15% MMF medicated chow ad libitum, 2 months of treatment
Procedure: Briefly, male and female Fabry mice aged 2-5 months of age are treated with 5-fluorouracil (5-FU) to deplete bone marrow cells and enrich for HSPCs. Four days after treatment these mice are euthanized, and bone marrow is isolated from femurs and tibia, and processed for transduction. Cells are cultured in stem cell media and transduced using lentivirus described above for 12 hours at a multiplicity of infection (MOI) of 10. Transduced cells are then harvested and prepared for administration to recipient mice. Recipients are male Fabry mice aged approximately 2 months. These are irradiated prior to engrafting transduced cells to deplete their own hematopoietic system. Some cells are retained in culture for an extra 48 hours to assay transduction. Mice are kept on prophylactic antibiotics as support during immune recovery. Engraftment of transduced cells is assessed by measuring VCN/genome in circulation using a qPCR-based assay and comparing to a standard curve, and by measuring plasma α-gal A activity. MMF medicated chow may be started after stable engraftment has been achieved, typically after 4 months. […] A baseline bleed was done to confirm engraftment and the mice were given 0.15% MMF capsule (TEVA generics, Israel) medicated chow ad libitum, and bled every 15 days to observe changes in plasma α-gal A activity, which is a measure of enrichment. […]

[2] = tested on: Jurkat cells; assay: In vitro enrichment of transduced Jurkat cells with MPA: vector copy number per genome by qPCR; type: cell-based; settings: Jurkat cells transduced with dual promoter vector; 0.5 μM MPA vs DMSO, 16 days; FIG. 4C
Procedure: (§1) In this Example, Jurkat cells (immortalized T cells) are used. […] 3 cell lines were generated by transducing Jurkat cells with the vectors described or with protamine sulphate only as a mock. VCN/genome was adjusted by dilution of the transduced cells with mock transduced cells. Each of these were seeded in 4 replicates and either treated with DMSO (vehicle) or 0.5 μM MPA. Fresh media with drug or vehicle was added after centrifuging the cells and discarding old media every two days. Samples were taken for cell counts. After 16 days of treatment, cells were reseeded for recovery in fresh media for a total of four days, after which they were counted and reseeded again for two days for α-gal A activity assay or one day for gDNA.
VCN was determined by comparison to a standard curve using a qPCR based method and normalized to the number of beta actin (ACTB) copies to determine a per genome value. Patterned bars in the chart refer to samples treated with DMSO and solid bars refer to those treated with MPA.

[3] = tested on: Jurkat cells; assay: α-gal A activity (4-MUG substrate) in lysates and supernatants of transduced Jurkat cells after MPA enrichment; type: cell-based; settings: Jurkat cells transduced with dual promoter vector; 0.5 μM MPA, 16 days, then recovery; FIGS. 4E and 4F
Procedure: as §1

[4] = tested on: Jurkat cells; assay: Glucocerebrosidase activity in supernatant of transduced Jurkat cells after MPA enrichment (fluorometric assay); type: cell-based; settings: cells transduced with GBA+(IY) virus and treated with MPA (0.5 μM, 16 days); FIG. 13
Procedure: Jurkat cells were transduced with lentivirus at an MOI of ˜0.1-0.2. Cells were cultured for at least 2 weeks prior to measuring baseline vector copy number. Cell lines for each of LV/GBA+eGFP and LV/GBA+(IY), or non-transduced cells were produced in this way. To measure enrichment, testing was carried out as described in Example 2. Briefly, cells at known densities were seeded in quadruplicate for each cell line, and maintained in culture for 16 days with either vehicle (DMSO) or 0.5 μM MPA, with media being replaced every two days. After treatment, cells were diluted and recovered for 4-8 days. gDNA was extracted from cells sampled from each well, and vector copy number analyses were carried out using qPCR. Cells from each well were also seeded at known and equal densities for 72 hours, after which supernatant was collected, cleared of cells and debris, and glucocerebrosidase activity measured using a fluorometric assay. Briefly, supernatants were incubated for 1 hour with substrate solution containing 4-methylumbelliferyl-beta-D-glucopyranoside (15 mM). The reaction was quenched with 0.1M glycine at pH 10 and fluorescence of the reaction product quantified against a calibration curve of the product.

SMILES | drug-related toxicities [1] | increase in the vector copy number of the total population per genome [2] [fold] | α-gal A activity in cell lysates and culture supernatants [3] | enzyme activity in cell culture supernatant [4]
COc1c(C)c2c(c(O)c1C/C=C(\C)CCC(=O)OCCN1CCOCC1)C(=O)OC2 [MMF, mycophenolate mofetil] | No drug-related toxicities were observed |  |  | 
COc1c(C)c2c(c(O)c1C/C=C(\C)CCC(=O)O)C(=O)OC2 [MPA, mycophenolic acid] |  | ~8 | corresponding increase in α-gal A activity | increased enzyme activity

Source: patent US11597917B2, “In vitro and in vivo enrichment strategy targeting lymphocytes derived from vector transduced HSCs for therapy of disorders” (THE MEDICAL COLLEGE OF WISCONSIN, INC., priority 2017, dated 2023)
